Columns and labels:
[1] = tested on: Eμ-myc lymphomas from p53^+/− mice; assay: Effect of p53 defect on therapy in Eμ-myc/p53^+/− mice; assay type: in vivo, mouse; conditions: 10 Eμ-myc/p53^+/− mice, 10 mg/kg, FIG. 14
Protocol: Since most Eμ-myc lymphomas from p53^+/− mice lose the wild-type p53 allele, it was possible to study the response of essentially p53-deficient tumors in mice that were otherwise hemizygous for p53 and not prone to thymic lymphoma (see strategy in FIG. 13). […] The response of Eμ-myc lymphomas with p53 defects to 10 mg/kg adriamycin therapy resembled that of Eμ-myc/p53^+/+ lymphomas following their second relapse (See FIG. 4).

[2] = tested on: secondary tumors arising from transplanted L885 cells; assay: Drug sensitivity of transplanted tumor cell line L885, by palpation; assay type: in vivo, mouse; conditions: 10 mg/kg, 9 secondary tumors vs 22 primary tumors, FIG. 11
Protocol: (§1) Eμ-myc lymphomas were cultured using feeder layers (see Example 7). Several of these cell lines were transplanted into syngeneic C57BL/6 recipients by injection of 10^6 cells into the tail vein. Tumor-bearing animals were assessed for response to 10 mg/kg adriamycin therapy, by palpation for tumors.

[3] = tested on: primary myc-induced lymphomas in Eμ-myc transgenic mice; assay: Response to therapy of primary myc-induced lymphomas (remission/relapse by palpation and blood smears); assay type: in vivo, mouse; conditions: single treatment 10 mg/kg intraperitoneal, FIG. 4
Protocol: Eμ-myc transgenic mice were treated with 10 mg/kg body weight adriamycin (maximum tolerated dose) by intraperitoneal injection using adriamycin freshly resuspended in water to a final concentration of 1 mg/ml. Treated mice were monitored for remission and for relapse by palpation and by blood smears to obtain white blood cell counts.
Palpation is performed by gently feeling the mouse for bumps under the skin, which are enlarged lymph nodes.
Blood smears are done by collecting blood from the tail artery, and examining a dried droplet of blood which has been smeared on a glass microscope slide to be one cell layer thick at the edge. The blood smear is stained after drying, using LEUKOSTAT™ stain (Fisher Diagnostics cat. # CS43A-C). The blood smear can be mounted with Permount™ histological mounting medium (Fisher Scientific). Slides are viewed under 40X or oil emersion. Blood from mice affected by lymphoma are always compared with blood from mice from a normal mouse drawn at the same time.
The numbers of mice used to generate the data in FIG. 4 were 22 (first treatment), 14 (second treatment) and 5 (third treatment).

[4] = tested on: Eμ-myc lymphoma cell line L1025; assay: In vitro sensitivity of lymphoma cell lines, viability by trypan blue exclusion; assay type: cell-based, mouse; conditions: line L1025 from a resistant tumor, 24-hour treatment, FIG. 8
Protocol: Several lymphoma lines have been isolated from Eμ-myc mice in which the response to adriamycin of the original tumor was known. Eμ-myc lymphoma cell lines cultured in vitro were tested for their sensitivity to adriamycin. Lymphocytes were counted. The cells were spun down and resuspended in pre-conditioned B cell media (media that has been on feeder cells for 24 hours) at a concentration of 2×10^6 cells/ml. 10^6 cells were seeded per well of a tissue culture plate, in 0.5 ml. Adriamycin was suspended in pre-conditioned B cell media at twice the final concentration. Final concentrations of adriamycin were 0.25, 0.05, 0.075, 0.1, 0.5 and 1.0 μg/ml. 0.5 of medium was added to each well, to a final volume of 1 ml. Cells were incubated for 24 hours at 37° C. Cells were transferred from the wells to Eppendorf tubes on ice, and centrifuged at 2500 rpm for 5 minutes at 4° C. The medium was poured off the cell pellets, leaving about 200 μl of medium in each tube. One drop of trypan blue dye was added to each tube, and a total of 200 cells per sample were counted under a microscope. Live cells exclude trypan blue and appear white; dead cells take up trypan blue and appear blue.
L877 has been tested as Eμ-myc/p53^−/−; the other cell lines are derived from Eμ-myc/p53^+ mice and are presumably p53^+/+.

[5] = tested on: L700 cell line derived from an Eμ-myc (p53^+) tumor; assay: Detection of caspase activation (biotin-YVAD-amk labelling, blot); assay type: cell-based, mouse; conditions: 0.1 μg/ml, 0, 3, 6 or 9 hours, FIG. 10
Protocol: Procedures were as published in Faleiro, L., et al., EMBO J. 16:2271-2281, 1997). Isolated L700 cells growing in culture dishes were treated with 0.1 μg/ml adriamycin. After 0, 3, 6 or 9 hours, cell lysates were made in the presence of 10 μM biotin-YVAD-amk to label caspases, and the protein concentrations were determined. Protein samples were run on a 15% acrylamide-0.1% SDS gel. Proteins were transferred from the gel to Immobilon P membrane (Millipore). Membranes were washed in methanol and air dried. Dried, baked membranes were incubated in biotinylated horseradish peroxidase at 25 ng/ml. Labeled proteins were visualized with ECL reagent (Amersham).

[6] = tested on: transplanted Eμ-myc lymphoma cells in C57BL/6 mice; assay: Tumor transplantation into syngeneic mice, response to treatment by palpation; assay type: in vivo, mouse; conditions: 10^6 cells by tail vein into C57BL/6, 10 mg/kg, compared with primary tumors, FIG. 5
From the text: Upon discovery of tumors in a Eμ-myc transgenic mouse, lymphoma cells were harvested, and 10^6 cells were immediately transplanted into multiple C57BL/6 mice (Taconic Laboratories) by tail vein injection. Tumors were allowed to form (usually in about two weeks). Treatment with adriamycin was given as in Example 5. […] The results (as assessed by palpation for tumors) plotted in FIG. 5 are from 22 mice with primary tumors, and 10 mice with transplanted tumors.

Eμ-myc/p53^−/− lymphoma = assay: White blood cell counts of lymphoma-associated leukemia after treatment; assay type: in vivo; conditions: Eμ-myc/p53^−/− mouse, 10 mg/kg, 0-24 hours after treatment, FIG. 6, one mouse
Protocol: Eμ-myc/p53^+ mice (C57BL/6) and Eμ-myc/p53^−/− (C57BL/6 x 129; p53^−/LOH in FIGS. 6 and 7) with leukemia associated with primary lymphoma, were treated with either adriamycin at 10 mg/kg of body weight or with 6 Gy of whole body gamma-irradiation. Blood samples were taken and white blood cells were counted in a hemocytometer at 0, 4, 8, 12 and 24 hours after treatment. […] The data plotted in FIGS. 6 and 7 are from one treated mouse of each genotype.

[7] = tested on: transplanted L1537 cells (homozygous for p53^−); assay: Drug sensitivity of transplanted tumor cell line L1537; assay type: in vivo, mouse; conditions: two C57BL/6 mice, 10 mg/kg
Protocol: as §1
Tumor cell line L1537 was derived from an Eμ-myc/p53^+/− lymphoma and was tested as homozygous for p53^−. Tumor cells were transplanted, by the method described above, into two C57BL/6 mice.

COc1cccc2c1C(=O)c1c(O)c3c(c(O)c1C2=O)C[C@@](O)(C(=O)CO)C[C@@H]3O[C@H]1C[C@H](N)[C@H](O)[C@H](C)O1 [adriamycin]
response to therapy (percentage of tumor-free mice) [1]: almost completely refractory to therapy
response of transplanted L885 tumors to therapy [2]: virtually indistinguishable from that seen in the primary, non-transplanted lymphomas
response to therapy (time to relapse by palpation) [3]: the vast majority of the mice respond to therapy
sensitivity in cell culture (percent viable cells) [4]: sensitive in cell culture
caspase activation [5]: caspase activation following drug treatment
response of transplanted (secondary) tumors to treatment [6]: A higher percentage of these secondary tumors failed to respond to treatment
sensitivity of lymphoma-associated leukemia (white blood cell counts) (Eμ-myc/p53^−/− lymphoma): insensitive
response of transplanted L1537 tumors to therapy [7]: Both mice failed to respond
